This note sets out measurements from US20050064412A1, “Method of evaluating degree of canceration of mammal-origin specimen” (priority 2001, published 2005).

Type in all cases: cell-based, human
For experiment [1], the system named is 3OST2 gene. In words: Methylation-specific PCR of 3OST2 gene after culture with methylation inhibitor (MCF-7). The settings on record: breast cancer cell line MCF-7 cultured in the presence of 6 μM 5Aza-dC, FIG. 2. As for the experimental part: (§1) Two kinds of human-derived breast cancer cell lines (MCF-7, MDA-MB-468) and human-derived normal mammary gland epithelial cell (HMEC) were seeded at a density of 3 to 6×10^5 cells/10 cm plate, and cultured using RPMI or DMEM or an exclusively used medium. On the first day after seeding, 5-aza-2′-deoxytidine (manufactured by sigma) (hereinafter, referred to as 5Aza-dC) which is a methylation inhibitor was added to a medium to give the concentration of 0.5 to 6 μM. Twenty four hours after addition of 5Aza-Dc, the medium was exchanged with the aforementioned medium to which no 5Aza-dC was added, and culturing was continued. Then, on the third day after seeding, 5Aza-dC was added to the medium similarly. On the fourth day after seeding, cells were recovered, and a genomic DNA was extracted and recovered from the recovered cells according to the same manner as that of Example 1. Further, according to the same manner as that of Example 2, a RNA was extracted and recovered.
(§2) The extracted and recovered genomic DNA was treated with sodium bisulfite according to the same manner as that of Example 1. The resulting DNA was used as a template and PCR was performed using unmethylation-specific primers U2 and U3, or methylation-specific primers M3 and M4 shown below. […]

The subject of experiment [2] is 3OST2 gene. In words: RT-PCR of 3OST2 gene mRNA after culture with methylation inhibitor (MDA-MB-468). As to conditions: FIG. 3. Here is the method:
The thus obtained RNA was treated with DNaseI (Life Technologies), and this was used as a template and Superscript II (Life Technologies) was used to synthesize a cDNA according to a protocol attached to the enzyme. By performing PCR using the synthesized cDNA as a template and using 3OST2 S and 3OST2 A shown below as a primer pair, a DNA derived from a mRNA of 3OST2 gene was amplified. Thereupon, as a control by performing PCR using the aforementioned cDNA as a template and using GAPDH S and GAPDH A solution below as a primer pair, a DNA derived from a mRNA of a GAPDH gene was amplified.
A reaction solution PCR was used which was obtained by mixing 20 ng of a cDNA as a template, each 0.25 μl of two kinds of 25 pmol/μl aforementioned primer solution, 0.5 μl of 10 mM dNTP, 2.5 μl of 10× buffer (100 mM Tris-HCl pH 8.3, 500 mM KCl, 20 mM MgCl2) and 0.15 μl of a 5 U/μl thermostable DNA polymerase, and adding sterilized ultrapure water thereto to an amount of solution of 25 μl. When a DNA derived from mRNA of 3OST2 gene was amplified, PCR was performed at the conditions under which the reaction solution was retained at 94° C. for 10 minutes, 28 cycles of temperature maintenance were performed, each cycle was 30 seconds at 94° C., 30 seconds at 45° C. and 60 seconds at 72° C., and a temperature was maintained at 72° C. for 10 minutes. […]

The test system of experiment [3] is 3OST2 gene. Nature of the experiment: Methylation-specific PCR of 3OST2 gene after culture with methylation inhibitor (MDA-MB-468). The settings on record: breast cancer cell line MDA-MB-468 cultured in the presence of 0.5 μM 5Aza-dC, FIG. 2. Here is the method: as §1, §2

`Nc1ncn([C@H]2C[C@H](O)[C@@H](CO)O2)c(=O)n1` [5Aza-dC, 5-aza-2′-deoxytidine]: the “methylation status of cytosines 1260, 1271, 1281, 1410, 1418, 1423 and 1425 of SEQ ID NO: 1 (3OST2 gene)” value in the experiment with 3OST2 gene [1] is recorded as “not methylated in genomic DNAs of approximately half of cells”; with 3OST2 gene [3], “not methylated in almost genomic DNAs”. The “DNA (161 bp) derived from a mRNA of 3OST2 gene (expression)” value in the experiment on 3OST2 gene [2] (MAD-MB-468 cultured in the presence of 0.5 μM 5Aza-dC) and with 3OST2 gene [2] (MAD-MB-468 cultured in the presence of 1 μM 5Aza-dC) was “detected” each time.
